Measurements reported in US9731052B2, “Methods for stepwise deposition of silk fibroin coatings” (TRUSTEES OF TUFTS COLLEGE, priority 2005, dated 2017).

Experiments:
[1] = Compound release from multilayer silk coatings on glass slides in PBS; assay type: physicochemical; conditions: room temperature
Text: (§1) This process was repeated according to the designated architectures in which the outmost layer was always silk layer. In this work, two different loading modalities were used in the release study for each compound, each with two different rinsing methods. UV-Vis absorbance spectra and a research quartz crystal microbalance (RQCM) were used for verifying the deposition.
The compound release from the multilayer coatings on glass microscope slides (25×75 mm on both sides) was investigated by incubating the slides in 5 ml PBS buffer solutions at room temperature with gentle shaking (60 rpm). At preset time intervals, 2 ml supernatant was sampled and 2 ml fresh PBS solution was then added to replenish the sample that was removed in order to maintain a constant volume. The supernatant was analyzed for the amount of released model compound using UV-vis spectroscopy for optical densities at a specific wavelength for each compound (562 nm for Rhodamine B, 609 nm for Even Blue, and 358 nm for Azoalbumin) and compared to a standard curve generated for each compound. The amount of released compound in each sample was summed with the amounts at each previous time point and divided by the total amount to obtain cumulative release value. Experiments were run in triplicates (n=3). Data in the graphs represent the average±standard deviation.

[2] = Real-time adsorption of model compounds monitored by RQCM; assay type: physicochemical; conditions: in situ RQCM; for adsorption (saturation) that took place within the first 2 min: silk pre-coated gold electrode
Text: as §1
The real-time adsorption of model compounds on silk pre-coated gold electrode surface was monitored using research quartz crystal microbalance (RQCM).

Molecule | initial burst, compared with Rhodamine B [1] | adsorption (saturation) that took place within the first 2 min [2] [%] | adsorption on silk coating, compared with Even Blue [2]
Cc1cc(-c2ccc(/N=N/c3ccc4c(S(=O)(=O)[O-])cc(S(=O)(=O)[O-])c(N)c4c3O)c(C)c2)ccc1/N=N/c1ccc2c(S(=O)(=O)[O-])cc(S(=O)(=O)[O-])c(N)c2c1O.[Na+].[Na+].[Na+].[Na+] [Even Blue] | no noticeable difference | ~92 | 
CCN(CC)c1ccc2c(-c3ccccc3C(=O)O)c3ccc(=[N+](CC)CC)cc-3oc2c1 [Rhodamine B] |  | ~92 | higher adsorption
Azoalbumin: model molecule representing therapeutically relevant proteins |  | ~82 | 
